Laboratory results: patent US20090270363A1, “2-Aryl- and 2-Heteroarylthiazolyl Compounds, Methods for Their Preparation and Use Thereof” (Wyeth, priority 2008, published 2009)

How the values were obtained:
[1] = test system: HCT116 cells (Securin+/+, securin parental, HCT116 FB); test: Growth inhibition (sulforhodamine B, 5 days) of securin parental cells; type: cell-based; conditions: Homo sapiens, HCT-116, 120 h, SRB
Method: (§1) IC50 analysis was performed for selected fused bicyclic 2-aryl or 2-heteroarylthiazolyl compounds that were tested on HCT116 cells and Securin “knock out” cell lines.
(§2) Cell Culture—HCT116 and securin “knock out” cells. HCT116 and securin “knock out” cells (D8 and F3) were grown in RPMI+5% fetal bovine serum and gentamycin. They were maintained in a humidified 37° C. incubator with 5% CO2. Since the securin “knock out” cells have active chromosomal instability, cells were used at a low passage number of 2-13 passages. At or before passage 13 a new vial of cells was thawed and used for the screen. Cell seeding—HCT116 cells and securin “knock out” cells were trypsinized and suspended in RPMI+5% FBS at a density of 27,000 cells/mL. HCT116 and securin “knock out” cells were seeded separately in wells of a 96-well plate (Falcon Cat # 35-3872) at a cell density of 4000 cells per well. Cells were seeded in 150 μL of RPMI media containing 5% FBS and gentamycin. Cell seeding was performed under aseptic conditions. Cells were allowed to attach and grow overnight in a humidified 37° C. incubator.
(§3) Compound Dilution and Dispensation. A series of stock solutions, 10 mg/mL of fused bicyclic 2-aryl- or 2-heteroarylthiazolyl compounds to be tested, were brought to room temperature. The compounds were diluted 1:50 in RPMI+5% FBS (Highest concentration 200 μg/mL). The compounds were then serially diluted 1:3 across a deep-well titration plate resulting in final concentrations in the plate of 200, 66.7, 22.2, 7.4, 2.4, 0.8, 0.27, 0.091, 0.03, 0.01, and 0.0034 μg/mL with one well left without a compound. 50 μL of this dilution series was added to the 150 μL of cells to result in a final concentration of compound in with the cells of 50, 16.6, 5.5, 1.8, 0.6, 0.2, 0.068, 0.023, 0.0076, 0.0025, and 0.00084 μg/mL. The dilution and addition of compounds to the plates is performed using a Multimek 96 Robot (Beckman Coulter).
(§4) Incubation and analysis. After dosing, the cells in the 96 well plates were returned to the humidified 37° C. incubator. The compounds remained on the cells for 5 days. After 5 days, the cells were fixed to the plates with the addition of 50 μL of 50% (vol/vol) Trichloro Acetic Acid ([…]). The cells were fixed at 4° C. for 1 hour. The plates were washed 5 times in distilled water and allowed to dry. The cells were stained with 0.4% sulforhodamine B (Sigma) in 1% acetic acid. The cells were stained for 15 minutes at room temperature. The plates were then washed 3 times in 1% acetic acid. The plates were dried and the dye was solubilized in 10 mM Tris at pH 8.0. The plates were read on the Absorbence 560 setting on a Victor^2 V Model 1420 Multilabel HTS counter (Perkin Elmer).
(§5) Analysis of Results—IC50 data. Absorbence data was read off of the Victor and was converted to a percentage of the control (untreated) values. IC50 values were graphed and the point at which a 50% inhibition of the control level was determined. […] If the model was not able to determine an IC50, the IC50 was assigned to the lowest concentration that gives a 50% or greater decrease in absorbence compared to control levels. If the calculated IC50 value for a cell line exceeds the top concentration for the assay (typically 50 μg/mL), the assay was scored as >50.
(§6) Selectivity Ratio. The Selectivity Ratio is the ratio of IC50s between the parent cell line and the knock out cell line and is always a positive number and is typically an integer.

[2] = test system: securin "knock out" cells D8 (Securin-/-); test: Growth inhibition (sulforhodamine B, 5 days) of securin knock out cells D8; type: cell-based; conditions: for IC50: 120 h, securin knock out D8 cells, 5 days, SRB; for Selectivity Ratio D8: IC50 HCT116 / IC50 securin KO D8
Method: as §1, §2, §3, §4, §5, §6

[3] = test system: securin "knock out" cells F3 (Securin-/-); test: Growth inhibition (sulforhodamine B, 5 days) of securin knock out cells F3; type: cell-based; conditions: for IC50: 120 h, securin knock out F3 cells, 5 days, SRB; for Selectivity Ratio F3: IC50 HCT116 / IC50 securin KO F3
Method: as §1, §2, §3, §4, §5, §6

[4] = test system: Xenografts of a Human Breast Carcinoma Cell Line (MDA-MB-361); test: Tumor xenograft study versus Herceptin (Table 2); type: in vivo; conditions: 40 mg/kg/dose PO, days 1 through 20
Method: (§7) Selected fused bicyclic 2-aryl- or 2-heteroarylthiazolyl compounds of formula I were tested for their activity in a securin parental cell line (HCT116 FB) and a securin knockout (KO) cell line. […] The in-vivo activity of selected fused bicyclic 2-aryl- or 2-heteroarylthiazolyl compounds of formula I was studied in cells growing as xenografts in athymic (nude) mice. The effect of Examples 164, 166 and 167 was studied in xenografts of a human breast carcinoma cell line (MDA-MB-361).
(§8) In-vivo Activity in Tumor Xenografts. […] The fused bicyclic 2-arylthiazolyl compounds were formulated using 0.5% Methocel™ (methylcellulose) and 0.4% Tween 80™ (polysorbate-80 and oleic acid) and administered daily orally (PO), by gavage or by syringe. Tumor mass [(length×width^2)/2] was determined every 7 days. Inhibition of tumor growth was calculated relative to conventional (vehicle treated) controls.

[5] = test system: Xenografts of a Human Breast Carcinoma Cell Line (MDA-MB-361); test: Tumor xenograft study versus Vincristine (Table 3); type: in vivo
Method: as §7, §8
The effectiveness of Examples 164, 166 and 167 versus Vincristine at controlling tumor growth was studied and the results are summarized in Table 3 and FIG. 2.

[6] = 0.8 mg/kg/dose IP, days 2, 5 and 10
[7] = 100 mg/kg/dose PO, BID, days 2 through 21
[8] = 100 mg/kg/dose PO, BID, days 2 through 21, BID vehicle group listed
[9] = 150 mg/kg/dose PO, days 2 through 21

Cc1cc(N(C)C)ccc1-c1nc2c(s1)C(O)CCC2 (stereo not shown) [Example 45, 2-[4-(dimethylamino)-2-methylphenyl]-4,5,6,7-tetrahydro-1,3-benzothiazol-7-ol]
IC50 [1]: 133 µM
selectivity ratios (IC50 HCT116 FB/IC50 securin KO) [2]: high selectivity ratios
IC50 [2]: 0.54 µM
Selectivity Ratio D8 [2]: 245
IC50 [3]: 1.1 µM
Selectivity Ratio F3 [3]: 121

Cc1cc(N(C)C)ccc1-c1nc2c(s1)[C@H](O)CCC2 [Example 99, (7R)-2-[4-(dimethylamino)-2-methylphenyl]-4,5,6,7-tetrahydro-1,3-benzothiazol-7-ol]
IC50 [1]: ≥ 173 µM
IC50 [2]: 0.24 µM
Selectivity Ratio D8 [2]: 709
IC50 [3]: 0.21 µM
Selectivity Ratio F3 [3]: 810

CC#CCOC(=O)c1cc(N(C)C)ccc1-c1nc2c(s1)C(O)CCC2 (stereo not shown) [Example 133, but-2-yn-1-yl 5-(dimethylamino)-2-(7-hydroxy-4,5,6,7-tetrahydro-1,3-benzothiazol-2-yl)benzoate]
IC50 [1]: 96.5 µM
IC50 [2]: 1.1 µM
Selectivity Ratio D8 [2]: 87
IC50 [3]: 1.8 µM
Selectivity Ratio F3 [3]: 54

O=[N+]([O-])c1cc(N2CCCC2)ccc1-c1nc2c(s1)C(O)CCC2 (stereo not shown) [Example 151, 2-(2-nitro-4-pyrrolidin-1-ylphenyl)-4,5,6,7-tetrahydro-1,3-benzothiazol-7-ol]
IC50 [1]: 38 µM
IC50 [2]: 0.046 µM
Selectivity Ratio D8 [2]: 832
IC50 [3]: 0.053 µM
Selectivity Ratio F3 [3]: 724

CCc1cc(N(C)C)ccc1-c1nc2c(s1)C(O)CCC2 (stereo not shown) [Example 47, 2-[4-(dimethylamino)-2-ethylphenyl]-4,5,6,7-tetrahydro-1,3-benzothiazol-7-ol]
IC50 [1]: 76.4 µM
IC50 [2]: 0.43 µM
Selectivity Ratio D8 [2]: 179
IC50 [3]: 3 µM
Selectivity Ratio F3 [3]: 26

CC(=O)c1cc(N(C)C)ccc1-c1nc2c(s1)C(O)CCC2 (stereo not shown) [Example 74, 1-[5-(dimethylamino)-2-(7-hydroxy-4,5,6,7-tetrahydro-1,3-benzothiazol-2-yl)phenyl]ethanone]
IC50 [1]: 100 µM
IC50 [2]: 0.15 µM
Selectivity Ratio D8 [2]: 650
IC50 [3]: 0.18 µM
Selectivity Ratio F3 [3]: 558

CCOc1cc2ncc(C#N)c(Nc3ccc(F)c(Cl)c3)c2cc1NC(=O)/C=C/CN(C)C [EKB-569]
% T/C Day 7 [4]: 66%
% T/C Day 14 [4]: 80%
% T/C Day 21 [4]: 78%
Relative Tumor Growth Day 7 [4]: 1.28
Relative Tumor Growth Day 14 [4]: 2.57
Relative Tumor Growth Day 21 [4]: 8.24
S/T = # of Survivors/# of Treated on Day +21 [4]: 10/10

COC(=O)c1cc(N(C)C)ccc1-c1nc2c(s1)[C@H](O)CCC2 [Example 165, methyl 5-(dimethylamino)-2-[(7R)-7-hydroxy-4,5,6,7-tetrahydro-1,3-benzothiazol-2-yl]benzoate]
IC50 [1]: 100 µM
IC50 [2]: 0.29 µM
Selectivity Ratio D8 [2]: 348
IC50 [3]: 0.74 µM
Selectivity Ratio F3 [3]: 136

OC1CCCc2nc(-c3ccc(N4CCCC4)cc3)sc21 (stereo not shown) [Example 158, 2-(4-pyrrolidin-1-yl-phenyl)-4,5,6,7-tetrahydro-benzothiazol-7-ol]
IC50 [1]: 154 µM
IC50 [2]: 1.7 µM
Selectivity Ratio D8 [2]: 91
IC50 [3]: 2.9 µM
Selectivity Ratio F3 [3]: 54

C/C=C/COC(=O)c1cc(N(C)C)ccc1-c1nc2c(s1)C(O)CCC2 (stereo not shown) [Example 130, (2E)-but-2-en-1-yl 5-(dimethylamino)-2-(7-hydroxy-4,5,6,7-tetrahydro-1,3-benzothiazol-2-yl)benzoate]
IC50 [1]: 77.6 µM
IC50 [2]: 2 µM
Selectivity Ratio D8 [2]: 38
IC50 [3]: 2.4 µM
Selectivity Ratio F3 [3]: 32

CC(O)c1cc(N(C)C)ccc1-c1nc2c(s1)C(O)CCC2 (stereo not shown) [Example 73, 2-[4-(dimethylamino)-2-(1-hydroxyethyl)phenyl]-4,5,6,7-tetrahydro-1,3-benzothiazol-7-ol]
IC50 [1]: 99.5 µM
IC50 [2]: 0.44 µM
Selectivity Ratio D8 [2]: 226
IC50 [3]: 0.79 µM
Selectivity Ratio F3 [3]: 126

CN(C)c1cc(F)c(-c2nc3c(s2)C(O)CCC3)c(F)c1 (stereo not shown) [Example 25, 2-[4-(dimethylamino)-2,6-difluorophenyl]-4,5,6,7-tetrahydro-1,3-benzothiazol-7-ol]
IC50 [1]: ≥ 161 µM
IC50 [2]: 2.6 µM
Selectivity Ratio D8 [2]: 62
IC50 [3]: 6.7 µM
Selectivity Ratio F3 [3]: 24

CN(C)c1ccc(-c2nc3c(s2)[C@H](O)CC3)cc1 [Example 6, (6R)-2-[4-(dimethylamino)phenyl]-5,6-dihydro-4H-cyclopenta[d][1,3]thiazol-6-ol]
IC50 [1]: 43.4 µM
IC50 [2]: 0.46 µM
Selectivity Ratio D8 [2]: 95
IC50 [3]: 0.84 µM
Selectivity Ratio F3 [3]: 52

CCOc1cc2ncc(C#N)c(Nc3ccc(OCc4ccccn4)c(Cl)c3)c2cc1NC(=O)/C=C/CN(C)C [HKI-272, reference compound]
% T/C Day 7 [4]: 62%
% T/C Day 14 [4]: 89%
% T/C Day 21 [4]: 76%
Relative Tumor Growth Day 7 [4]: 1.19
Relative Tumor Growth Day 14 [4]: 2.86
Relative Tumor Growth Day 21 [4]: 8.03
S/T = # of Survivors/# of Treated on Day +21 [4]: 10/10

CC[C@]1(O)C[C@H]2CN(CCc3c([nH]c4ccccc34)[C@@](C(=O)OC)(c3cc4c(cc3OC)N(C=O)[C@H]3[C@@](O)(C(=O)OC)[C@H](OC(C)=O)[C@]5(CC)C=CCN6CC[C@]43[C@@H]65)C2)C1 [Vincristine, reference compound]
% T/C Day 8 [5, 6]: 33%
% T/C Day 15 [5, 6]: 23%
% T/C Day 22 [5, 6]: 30%
Relative Tumor Growth Day 8 [5, 6]: 1.75
Relative Tumor Growth Day 15 [5, 6]: 2.84
Relative Tumor Growth Day 22 [5, 6]: 6.71
Relative Tumor Growth Day 29 [5, 6]: 11.47

COc1cc(Nc2c(C#N)cnc3cc(OCCCN4CCN(C)CC4)c(OC)cc23)c(Cl)cc1Cl [SKI-606 20]
Relative Tumor Growth Day 8 [5, 7]: 1.97
Relative Tumor Growth Day 15 [5, 7]: 2.44
Relative Tumor Growth Day 22 [5, 7]: 3.91
Relative Tumor Growth Day 29 [5, 7]: 5.73
Relative Tumor Growth Day 36 [5, 7]: 10.26
S/T = # of Survivors/# of Treated on Day +36 [5, 7]: 8/10
% T/C Day 8 [5, 8]: 52%
% T/C Day 15 [5, 8]: 27%
% T/C Day 22 [5, 8]: 18%
% T/C Day 8 [5, 9]: 40%
% T/C Day 15 [5, 9]: 22%
% T/C Day 22 [5, 9]: 16%
Relative Tumor Growth Day 8 [5, 9]: 2.09
Relative Tumor Growth Day 15 [5, 9]: 2.77
Relative Tumor Growth Day 22 [5, 9]: 3.62
Relative Tumor Growth Day 29 [5, 9]: 7.22
Relative Tumor Growth Day 36 [5, 9]: 10.19
S/T = # of Survivors/# of Treated on Day +36 [5, 9]: 10/10
